The target in assay [1] is T1, Recombinant STAT6 protein (STAT6 (W123-T658)) (Homo sapiens, UniProt P42226).
T1 construct: Recombinant STAT6 protein (STAT6 (W123-T658))
T1 sequence (P42226 123-658): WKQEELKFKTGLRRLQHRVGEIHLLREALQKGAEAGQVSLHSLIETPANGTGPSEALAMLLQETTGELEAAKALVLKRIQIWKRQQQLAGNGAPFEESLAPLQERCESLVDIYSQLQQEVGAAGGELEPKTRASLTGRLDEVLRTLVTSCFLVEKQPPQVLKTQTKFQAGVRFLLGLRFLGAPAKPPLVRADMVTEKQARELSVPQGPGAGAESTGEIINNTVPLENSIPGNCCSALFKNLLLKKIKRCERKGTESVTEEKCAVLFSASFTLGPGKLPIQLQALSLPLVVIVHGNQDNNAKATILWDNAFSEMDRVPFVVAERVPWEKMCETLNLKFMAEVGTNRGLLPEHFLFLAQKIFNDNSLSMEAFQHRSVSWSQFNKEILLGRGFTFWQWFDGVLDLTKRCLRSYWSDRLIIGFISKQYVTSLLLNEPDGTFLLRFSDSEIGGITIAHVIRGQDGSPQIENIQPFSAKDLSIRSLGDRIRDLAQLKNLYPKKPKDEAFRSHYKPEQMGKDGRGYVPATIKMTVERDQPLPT
The assay is described as follows: STAT6 Fluorescence Polarization (FP) Assay. In kind it is binding. The note with it: probe 5-FAM-Ap[…]-NH2 2 nM, 45-minute incubation. The gist of the method: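 Displacement of a fluorescent phosphotyrosine peptide (2 nM) from 250 nM STAT6 (W123-T658) is measured by polarization after a 45-minute room-temperature incubation. Compounds are titrated serially at 1% DMSO, and IC50 values derive from regression of mP on log concentration.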
(In fluorescence polarisation assays a small probe gives low polarisation when free and higher when bound to something large.)

The target of assay [2] is T2, Recombinant STAT3 protein (STAT3 (G127-I722)) (Homo sapiens, UniProt P40763).
T2 construct: Recombinant STAT3 protein (STAT3 (G127-I722))
The assay is described as follows: STAT3 Fluorescence Polarization (FP) Assay. The assay is classed as binding. The note with it: probe 5-FAM-GpYLPQTV-NH2 2 nM, 45-minute incubation. A digest of the protocol:
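Displacement of a fluorescent phosphotyrosine peptide (5-FAM-GpYLPQTV-NH2, 2 nM) from 25 nM recombinant STAT3 G127-I722 was monitored by FP after 45 min at room temperature.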

[3] abbreviates: STAT6 (W123-T658) 250 nM, read-out: STAT6 (FP assay IC50 class).
Where [4] appears, read: STAT3 (G127-I722) 25 nM, read-out: STAT3 (FP assay IC50 class).
The mark [5] stands for this setting: STAT6 250 nM, read-out: STAT6 (FP assay IC50).
The mark [6] stands for this setting: STAT3 25 nM, read-out: STAT3 (FP assay IC50).

Read-outs that look alike come from different tables or passages of the source.

For orientation: IC50 means the point on the concentration scale where inhibition reaches its midpoint.

T2 sequence (P40763 127-722): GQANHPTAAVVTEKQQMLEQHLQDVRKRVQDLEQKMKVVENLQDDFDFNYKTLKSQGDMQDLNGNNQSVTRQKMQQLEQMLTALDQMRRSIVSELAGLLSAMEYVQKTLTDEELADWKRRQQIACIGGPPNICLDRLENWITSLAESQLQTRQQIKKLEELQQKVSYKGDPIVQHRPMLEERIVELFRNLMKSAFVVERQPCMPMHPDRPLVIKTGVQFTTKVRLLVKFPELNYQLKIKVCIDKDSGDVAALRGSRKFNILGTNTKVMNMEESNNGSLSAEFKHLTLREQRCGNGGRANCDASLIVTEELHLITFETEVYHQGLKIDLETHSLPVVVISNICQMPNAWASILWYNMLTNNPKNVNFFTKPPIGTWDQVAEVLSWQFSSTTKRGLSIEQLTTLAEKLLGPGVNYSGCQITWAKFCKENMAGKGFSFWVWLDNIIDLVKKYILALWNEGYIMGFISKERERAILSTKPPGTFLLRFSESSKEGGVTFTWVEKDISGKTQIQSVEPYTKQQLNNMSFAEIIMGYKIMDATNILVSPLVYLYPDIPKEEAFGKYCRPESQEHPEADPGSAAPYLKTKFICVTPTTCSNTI

As to `O=C(N[C@H]1CCCC[C@H]2CC[C@@H](C(=O)N3CC(OCC(F)F)(c4ccccn4)C3)N2C1=O)c1cc2cc(C(F)P(=O)(O)O)ccc2s1` (stereo partly drawn) [Compound 621, ((2-(((3S,6S,10aS)-3-(3-(2,2-difluoroethoxy)-3-(pyridin-2-yl)azetidine-1-carbonyl)-5-oxodecahydropyrrolo [1,2-a]azocin-6-yl)carbamoyl)benzo [b]thiophen-5-yl)fluoromethyl) phosphonic acid], the IC50 was 3 to 30 µM in assay [1] (setting [3]) and < 0.1 µM in assay [2] (setting [4]).

Turning to `O=C(N[C@H]1CCC[C@H]2CC[C@@H](C(=O)N3CC(c4cnccc4N4CC[C@@H]4C(F)F)C3)N2C1=O)c1cc2cc(CP(=O)(O)O)ccc2s1` [Compound 668, ((2-(((3S,6S,9aS)-3-(3-(4-((R)-2-(difluoromethyl)azetidin-1-yl)pyridin-3-yl)azetidine-1-carbonyl)-5-oxooctahydro-1H-pyrrolo[1,2-a]azepin-6-yl)carbamoyl)benzo [b]thiophen-5-yl)methyl) phosphonic acid], the results for the IC50 in assay [1] (setting [3]) and in assay [2] (setting [4]) were 3 to 30 µM and < 0.1 µM, respectively.

Consider `O=C(N[C@H]1CCCCC[C@H]2CC[C@@H](C(=O)N3CC(C(=O)N4CCOCC4)C3)N2C1=O)c1cc2cc(C(F)(F)P(=O)(O)O)ccc2s1` [Compound 773, (difluoro(2-(((3S,6S,11aS)-3-(3-(morpholine-4-carbonyl)azetidine-1-carbonyl)-5-oxodecahydro-1H-pyrrolo[1,2-a]azonin-6-yl)carbamoyl)benzo [b]thiophen-5-yl)methyl) phosphonic acid], for which the IC50 in assay [1] (setting [3]) was > 30 µM; in assay [2] (setting [4]), 0.1 to 1 µM.

Regarding `O=C(N[C@H]1CCC[C@H]2CC[C@@H](C(=O)N3CC(c4cccnc4)C3)N2C1=O)c1cc2cc(C(F)(F)P(=O)(O)O)ccc2s1` [Compound 33, (difluoro(2-(((3S,6S,9S)-5-oxo-3-(3-(pyridin-3-yl)azetidine-1-carbonyl)octahydro-1H-pyrrolo[1,2-a]azepin-6-yl)carbamoyl)benzo[b]thiophen-5-yl)methyl) phosphonic acid], the figures for the IC50 in assay [1] (setting [5]) and in assay [2] (setting [6]) were 0.3 to 3 µM and < 0.1 µM, respectively.

As to `O=C(N[C@H]1CCC[C@H]2CC[C@@H](C(=O)N3CC(c4ncc(C5CC5)cn4)C3)N2C1=O)c1cc2cc(C(F)(F)P(=O)(O)O)ccc2s1` [Compound 817, ((2-(((3S,6S,9aS)-3-(3-(5-cyclopropyl-pyrimidin-2-yl)azetidine-1-carbonyl)-5-oxooctahydro-1H-pyrrolo[1,2-a]azepin-6-yl)carbamoyl)benzo [b]thiophen-5-yl)difluoromethyl) phosphonic acid], the IC50 in assay [1] (setting [3]) was 3 to 30 µM; in assay [2] (setting [4]), 1 to 10 µM.

For `O=C(N[C@H]1CCCC[C@H]2CC[C@@H](C(=O)N3CC(C4CCOCC4)C3)N2C1=O)c1cc2cc(C(F)(F)P(=O)(O)O)ccc2s1` [Compound 118A, (difluoro(2-(((3S,6S,10a S)-5-oxo-3-(3-(tetrahydro-2H-pyran-4-yl)azetidine-1-carbonyl)decahydropyrrolo-[1,2a]azocin-6-yl)carbamoyl)benzo[b]thiophen-5-yl)methyl) phosphonic acid], the results for the IC50 in assay [1] (setting [5]) and in assay [2] (setting [6]) were 3 to 30 µM and 0.1 to 1 µM, respectively.

With `C[C@@H]1C[C@H](NC(=O)c2cc3cc(C(F)(F)P(=O)(O)O)ccc3s2)C(=O)N2[C@H](CC[C@H]2C(=O)N2CC[C@@H](c3ccccc3)C2)C[C@H]1O` [Compound 100, (difluoro(2-(((3S,6S,8R,9R, 10aR)-9-hydroxy-8-methyl-5-oxo-3-((S)-3-phenylpyrrolidine-1-carbonyl)decahydropyrrolo [1,2-a]azocin-6-yl)carbamoyl)benzo[b]thiophen-5-yl)methyl) phosphonic acid], the results for the IC50 in assay [1] (setting [5]) and in assay [2] (setting [6]) were ≤ 0.3 µM and 1 to 10 µM, respectively.

Consider `N#C[C@H]1CN(C(=O)[C@@H]2CC[C@@H]3CCCC[C@H](NC(=O)c4cc5cc(C(F)(F)P(=O)(O)O)ccc5s4)C(=O)N32)C[C@@H]1c1ccc2cn[nH]c2c1` (racemic) [Compound 99, ((2-(((3S,6S,10aS)-3-(rel-(trans)-3-cyano-4-(1H-indazol-6-yl)pyrrolidine-1-carbonyl)-5-oxodecahydropyrrolo [1,2-a]azocin-6-yl)carbamoyl)benzo[b]thiophen-5-yl)difluoromethyl) phosphonic acid], for which the IC50 in assay [1] (setting [5]) was 0.3 to 3 µM; in assay [2] (setting [6]), 0.1 to 1 µM.

On to `O=C(N[C@H]1CCCC[C@H]2CC[C@@H](C(=O)N3CC(c4ccccc4)CC34CC4)N2C1=O)c1cnc2ccc(CP(=O)(O)O)cc2c1` (stereo partly drawn) [Compound 895, ((3-(((3S,6S,10aS)-5-oxo-3-(6-phenyl-4-azaspiro[2.4]heptane-4-carbonyl)decahydropyrrolo[1,2-a]azocin-6-yl)carbamoyl)quinolin-6-yl)methyl) phosphonic acid], for which the IC50 lay within 0.3 to 3 µM in assay [1] (setting [3]) and 1 to 10 µM in assay [2] (setting [4]).

In the case of `Cc1cc(C#N)cnc1C1CN(C(=O)[C@@H]2CC[C@@H]3CCCC[C@H](NC(=O)c4cc5cc(C(F)(F)P(=O)(O)O)ccc5s4)C(=O)N32)C1` [Compound 496, ((2-(((3S,6S,10aS)-3-(3-(5-cyano-3-methylpyridin-2-yl)azetidine-1-carbonyl)-5-oxodecahydropyrrolo[1,2-a]azocin-6-yl)carbamoyl)benzo[b]thiophen-5-yl)difluoromethyl)phosphonic acid], the results for the IC50 in assay [1] (setting [3]) and in assay [2] (setting [4]) were 0.3 to 3 µM and < 0.1 µM, respectively.

With `O=C(N[C@H]1CCCC[C@H]2CC[C@@H](C(=O)N3CCC(c4ccccc4F)C3)N2C1=O)c1cc2cc(C(F)P(=O)(O)O)ccc2s1` (stereo partly drawn) [Compound 563, (fluoro(2-(((3S,6S,10aS)-3-(3-(2-fluorophenyl)pyrrolidine-1-carbonyl)-5-oxodecahydropyrrolo[1,2-a]azocin-6-yl)carbamoyl)benzo[b]thiophen-5-yl)methyl)phosphonic acid], the IC50 lay in the range of 0.3 to 3 µM in assay [1] (setting [3]) and 1 to 10 µM in assay [2] (setting [4]).

As to `COC1(c2cccnc2)CN(C(=O)[C@@H]2CC[C@@H]3CCCC[C@H](NC(=O)c4cc5cc(CP(=O)(O)O)ccc5s4)C(=O)N32)C1` [Compound 651, ((2-(((3S,6S,10aS)-3-(3-methoxy-3-(pyridin-3-yl)azetidine-1-carbonyl)-5-oxodecahydropyrrolo [1,2-a]azocin-6-yl)carbamoyl)benzo [b]thiophen-5-yl)methyl) phosphonic acid], the values for the 50% inhibitory concentration (IC50) in assay [1] (setting [3]) and in assay [2] (setting [4]) were 3 to 30 µM and 1 to 10 µM, respectively.

With `N#CC1CN(C(=O)[C@@H]2CC[C@@H]3CC[C@H](NC(=O)c4cc5cc(C(F)(F)P(=O)(O)O)ccc5s4)C(=O)N32)C[C@@H]1c1ccccc1` (relative stereo) [Compound 733, ((2-(((3S,6S,8aS)-3-((rel-trans)-3-cyano-4-phenylpyrrolidine-1-carbonyl)-5-oxooctahydro-indolizin-6-yl)carbamoyl)benzo [b]thiophen-5-yl)difluoromethyl) phosphonic acid], the IC50 in assay [1] (setting [3]) was in the range of 0.3 to 3 µM; in assay [2] (setting [4]), 1 to 10 µM.

As to `COCCNC1(c2ccccn2)CN(C(=O)[C@@H]2CC[C@@H]3CCCC[C@H](NC(=O)c4cc5cc(C(F)P(=O)(O)O)ccc5s4)C(=O)N32)C1` (stereo partly drawn) [Compound 568, (fluoro(2-(((3S,6S,10aS)-3-(3-((2-methoxyethyl)amino)-3-(pyridin-2-yl)azetidine-1-carbonyl)-5-oxodecahydropyrrolo[1,2-a]azocin-6-yl)carbamoyl)benzo[b]thiophen-5-yl)methyl)phosphonic acid], the values for the IC50 in assay [1] (setting [3]) and in assay [2] (setting [4]) were 3 to 30 µM and < 0.1 µM, respectively.

Turning to `O=C(N[C@H]1CCCC[C@H]2CC[C@@H](C(=O)N3C[C@@H](c4cc[nH]c(=O)c4)CC34CC4)N2C1=O)c1ccc2ccc(CP(=O)(O)O)cc2c1` [Compound 883, ((7-(((3S,6S,10aS)-5-oxo-3-((R)-6-(2-oxo-1,2-dihydropyridin-4-yl)-4-azaspiro[2.4]heptane-4-carbonyl)decahydropyrrolo[1,2-a]azocin-6-yl)carbamoyl)naphthalen-2-yl)methyl) phosphonic acid], the IC50 in assay [1] (setting [3]) was 0.3 to 3 µM; in assay [2] (setting [4]) it was 1 to 10 µM.

For `NC(=O)N1CC(NC(=O)[C@@H]2CC[C@@H]3CCCC[C@H](NC(=O)c4cc5cc(C(F)P(=O)(O)O)ccc5s4)C(=O)N32)C1` (stereo partly drawn) [Compound 549, ((2-(((3S,6S,10aS)-3-((1-carbamoylazetidin-3-yl)carbamoyl)-5-oxodecahydropyrrolo[1,2-a]azocin-6-yl)carbamoyl)benzo[b]thiophen-5-yl)fluoromethyl)phosphonic acid], the IC50 in assay [1] (setting [3]) was 3 to 30 µM; in assay [2] (setting [4]), < 0.1 µM.

(Values after US20250215029A1 (Recludix Pharma, Inc., priority 2022, published 2025).)
